Here are results for 13 molecules from patent US20260234157A1, “COMPOUND AND METHOD FOR TARGETED DEGRADATION OF ANDROGEN RECEPTOR” (Gan & Lee Pharmaceuticals Co., Ltd., priority 2023, published 2026).

Format in all cases: cell-based
The target in test [1] is T1, AR protein (Homo sapiens, UniProt P10275, T878A).
T1 construct: degradation activity of the compounds disclosed in the present disclosure on AR protein in LNCaP cells; host or cells: LNCaP FGC
T1 sequence (P10275 1-920 T878A): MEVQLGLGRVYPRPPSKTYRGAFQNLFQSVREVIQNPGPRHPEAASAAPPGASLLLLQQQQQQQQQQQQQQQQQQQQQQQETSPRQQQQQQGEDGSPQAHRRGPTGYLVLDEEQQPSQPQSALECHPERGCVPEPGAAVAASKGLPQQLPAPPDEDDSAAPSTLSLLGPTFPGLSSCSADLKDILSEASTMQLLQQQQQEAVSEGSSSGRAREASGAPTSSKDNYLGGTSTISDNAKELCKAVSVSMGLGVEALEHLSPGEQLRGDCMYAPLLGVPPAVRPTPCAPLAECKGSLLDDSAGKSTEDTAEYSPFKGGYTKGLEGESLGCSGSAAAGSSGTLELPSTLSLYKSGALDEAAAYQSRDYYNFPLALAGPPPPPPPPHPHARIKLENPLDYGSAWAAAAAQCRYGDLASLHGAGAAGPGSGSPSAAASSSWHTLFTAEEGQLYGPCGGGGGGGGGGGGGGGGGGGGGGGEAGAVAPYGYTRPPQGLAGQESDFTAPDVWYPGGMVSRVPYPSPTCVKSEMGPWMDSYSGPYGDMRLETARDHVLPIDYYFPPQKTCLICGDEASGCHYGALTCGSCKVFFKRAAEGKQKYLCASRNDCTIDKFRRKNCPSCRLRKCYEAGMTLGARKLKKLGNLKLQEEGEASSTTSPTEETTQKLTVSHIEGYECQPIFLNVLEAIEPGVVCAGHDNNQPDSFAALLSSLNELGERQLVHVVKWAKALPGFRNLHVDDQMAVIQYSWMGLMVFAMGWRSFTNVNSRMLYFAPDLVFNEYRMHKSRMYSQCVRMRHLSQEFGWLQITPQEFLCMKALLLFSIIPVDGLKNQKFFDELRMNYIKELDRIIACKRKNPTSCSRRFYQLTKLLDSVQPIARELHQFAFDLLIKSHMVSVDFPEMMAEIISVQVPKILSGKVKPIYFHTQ
Briefly: Degradation of AR protein in LNCaP cells (Western blot). To be noted: LNCaP cells, 8 hours, Western blot grayscale, GAPDH internal reference; for inhibition at 0.01 µM: compound 10 nM, read-out: Degradation rates of the AR protein in LNCaP cells, 10 nM (%); for inhibition at 0.1 µM: compound 100 nM, read-out: Degradation rates of the AR protein in LNCaP cells, 100 nM (%). An outline of the steps:
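AR assessed by SDS-PAGE/Western blot with infrared imaging; band greyscale normalised to GAPDH gave percent degradation.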

The test system of another test is VCaP cells. As to the kind of experiment: Inhibition of proliferation of VCaP cells (WST-8). To be noted: Homo sapiens; VCaP cells, 168 hours, WST-8 absorbance at 450 nm; read-out: IC50 for inhibiting the proliferation of VCaP cells. An outline of the steps: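 VCaP FGC cells, 15000 per well in DMEM with 10% FBS, were cultured at 37° C, 5% CO2. On day nine, WST-8 reagent was added to read proliferation.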
(In general: Formazan colour is commonly taken as a measure of viable cells.)

In another test the test system is LNCaP FGC cells. As to the kind of experiment: Inhibition of proliferation of LNCaP cells (WST-8). As to conditions: Homo sapiens, LNCaP, 96 h, LNCaP FGC cells, 96 hours, WST-8 absorbance at 450 nm; read-out: IC50 for inhibiting the proliferation of LNCaP cells. As to the method: The cells were cultured in a cell culture incubator with 5% CO2 at 37° C. overnight. […] On the sixth day, 96 well plates were taken out, and 20 μL of WST-8 (Beytime, C0040) reagent was added to each well.

The target in test [2] is T2, AR protein (Homo sapiens, UniProt P10275).
T2 construct: degradation activity of the compounds disclosed in the present disclosure on AR protein in VCaP cells; host or cells: VCaP
T2 sequence (P10275 1-920): T1 sequence (P10275 1-920 T878A) with A878T
As to the kind of experiment: Degradation of AR protein in VCaP cells (Western blot). As to conditions: 8 hours; for inhibition at 0.01 µM: compound at 10 nM, read-out: Degradation rate of the AR protein in VCaP cells, 10 nM (%); for inhibition at 0.1 µM: compound at 100 nM, read-out: Degradation rate of the AR protein in VCaP cells, 100 nM (%). An outline of the steps:
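VCaP cells treated with compound alongside solvent controls for 8 h, then lysed in RIPA and protein quantified by BCA. AR detected by SDS-PAGE/Western blot with infrared imaging. Degradation rate calculated from band grayscale, with GAPDH as internal reference.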
For orientation: A western blot detects proteins with antibodies after separation by electrophoresis.

The structures appear in SMILES notation. Substitutions are numbered along the chain they refer to.

In the case of `COc1cc(O[C@H]2C(C)(C)[C@H](NC(=O)c3ccc(N4CCC(CN5CCC6(CCc7cc8c(cc7O6)C(=O)N(C6CCC(=O)NC6=O)C8=O)CC5)CC4)cc3)C2(C)C)ccc1C#N` (stereo partly drawn) [Compound 276], the inhibition at 0.01 µM is 55% on AR protein [1] and -11% on AR protein [2]. Besides, the inhibition at 0.1 µM was determined as 67% on AR protein [1] and 59% on AR protein [2]. Besides, the IC50 in the test on VCaP cells was 0.035 µM; in the test with LNCaP FGC cells, 8.81 µM.
As for `N#Cc1ccc(O[C@H]2CC[C@H](NC(=O)c3ccc(N4CC5(CCC(N6CCC7(CCc8cc9c(cc8O7)C(=O)N(C7CCC(=O)NC7=O)C9=O)CC6)CC5)C4)nn3)CC2)cc1Cl` (stereo partly drawn) [Compound 33], the inhibition at 0.01 µM is 27% on AR protein [1] and 49% at AR protein [2]. For the same molecule, the values for the inhibition at 0.1 µM at AR protein [1] and at AR protein [2] were 61% and 52%, respectively. Further, the IC50 in the test on VCaP cells is 1.7 µM; in the test with LNCaP FGC cells, 2.21 µM.
For the molecule `N#Cc1ccc(O[C@H]2CC[C@H](NC(=O)c3ccc(N4CCC(F)(CN5CCC6(CC5)COc5ccc7c(c5C6)C(=O)N(C5CCC(=O)NC5=O)C7)CC4)nn3)CC2)cc1Cl` (stereo partly drawn) [Compound 147], the results for the inhibition at 0.01 µM on AR protein [1] and on AR protein [2] were -3% and 24%, respectively. Also, the results for the inhibition at 0.1 µM on AR protein [1] and at AR protein [2] were 14% and 47%, respectively. The IC50 in the test with VCaP cells is 2.99 µM; in the test on LNCaP FGC cells, 17 µM.
For `N#Cc1ccc(O[C@H]2CC[C@H](NC(=O)c3ccc(N4CC(CN5CCC6(CC5)COc5cc7c(cc5C6)C(=O)N(C5CCC(=O)NC5=O)C7=O)C4)nn3)CC2)cc1Cl` (stereo partly drawn) [Compound 59], the figures for the inhibition at 0.01 µM at AR protein [1] and at AR protein [2] were 43% and 86%, respectively. The results for the inhibition at 0.1 µM on AR protein [1] and at AR protein [2] were 66% and 87%, respectively. Besides, the figures for the IC50 with VCaP cells and in the test on LNCaP FGC cells were 0.11 µM and 0.4 µM, respectively.
In the case of `N#Cc1ccc(O[C@H]2CC[C@H](NC(=O)c3ccc(N4CCC5(CCC(N6CCC7(CC6)COc6cc8c(cc6C7)C(=O)N(C6CCC(=O)NC6=O)C8=O)CC5)CC4)nn3)CC2)cc1Cl` (stereo partly drawn) [Compound 64], the inhibition at 0.01 µM on AR protein [1] came to 44%; on AR protein [2] it was 62%. The inhibition at 0.1 µM worked out at 72% on AR protein [1] and 73% at AR protein [2]. Moreover, the IC50 in the test with VCaP cells came to 0.16 µM; with LNCaP FGC cells, 0.8 µM.
Take `COc1cc(O[C@H]2CC[C@H](NC(=O)c3ccc(N4CCC(F)(CN5CC6(CCc7cc8c(cc7O6)CN(C6CCC(=O)NC6=O)C8=O)C5)CC4)nn3)CC2)ccc1C#N` (stereo partly drawn) [Compound 209]: the inhibition at 0.01 µM came to 49% on AR protein [1] and 39% on AR protein [2]. The results for the inhibition at 0.1 µM on AR protein [1] and on AR protein [2] were 25% and 67%, respectively. The IC50 was determined as 0.002 µM in the test with VCaP cells and 1.76 µM in the test with LNCaP FGC cells.
Regarding `N#Cc1ccc(O[C@H]2CC[C@H](NC(=O)c3ccc(N4CC(N5CCC6(CC5)COc5c6ccc6c5C(=O)N(C5CCC(=O)NC5=O)C6=O)C4)nn3)CC2)cc1Cl` (stereo partly drawn) [Compound 142], the inhibition at 0.01 µM was 29% on AR protein [1] and 26% on AR protein [2]. The inhibition at 0.1 µM turned out to be 52% on AR protein [1] and 74% at AR protein [2]. Besides, the IC50 is 15.1 µM with VCaP cells and greater than 90 µM with LNCaP FGC cells.
Regarding `COC1(CN2CC3(CCc4ccc5c(c4O3)C(=O)N(C3CCC(=O)NC3=O)C5)C2)CCN(c2ccc(C(=O)N[C@H]3CC[C@H](Oc4ccc(C#N)c(Cl)c4)CC3)nn2)CC1` (stereo partly drawn) [Compound 138], the results for the inhibition at 0.01 µM at AR protein [1] and at AR protein [2] were -9% and -28%, respectively. The inhibition at 0.1 µM is -1% at AR protein [1] and 7% on AR protein [2]. Moreover, the IC50 was greater than 90 µM in the test on VCaP cells and 71.5 µM with LNCaP FGC cells.
Regarding `N#Cc1ccc(O[C@H]2CC[C@H](NC(=O)c3ccc(N4CCC5(CC4)COc4cc6c(cc4C5)C(=O)N(C4CCC(=O)NC4=O)C6=O)nn3)CC2)cc1Cl` (stereo partly drawn) [Compound 60], the inhibition at 0.01 µM at AR protein [1] and at AR protein [2] was 41% in each case. The inhibition at 0.1 µM at AR protein [1] and on AR protein [2] was 64% throughout. The IC50 with VCaP cells came to 4.4 µM; in the test on LNCaP FGC cells, 2.4 µM.
Regarding `COc1cc(O[C@H]2C(C)(C)[C@H](NC(=O)c3ccc(N4CCC(C)(CN5CCC6(CCc7cc8c(cc7O6)C(=O)N(C6CCC(=O)NC6=O)C8)CC5)CC4)cc3)C2(C)C)ccc1C#N` (stereo partly drawn) [Compound 267], the inhibition at 0.01 µM on AR protein [1] and on AR protein [2] was 30% throughout. Further, the inhibition at 0.1 µM at AR protein [1] is 66%; on AR protein [2], 69%. Moreover, the IC50 with VCaP cells came out at 0.0045 µM; with LNCaP FGC cells it was 43.2 µM.
`N#Cc1ccc(O[C@H]2CC[C@H](NC(=O)c3ccc(N4CCC5(CCC(N6CCC7(CC6)COc6cc8c(cc67)C(=O)N(C6CCC(=O)NC6=O)C8=O)CC5)CC4)nn3)CC2)cc1Cl` (stereo partly drawn) [Compound 51]: the results for the inhibition at 0.01 µM on AR protein [1] and at AR protein [2] were 13% and 83%, respectively. The inhibition at 0.1 µM on AR protein [1] was 49%; on AR protein [2], 90%. The IC50 in the test on VCaP cells was found to be 0.018 µM; with LNCaP FGC cells, 0.4 µM.
For the molecule `N#Cc1ccc(O[C@H]2CC[C@H](NC(=O)c3ccc(N4CCC(O)(CN5CCC6(CC5)COc5c6ccc6c5C(=O)N(C5CCC(=O)NC5=O)C6=O)CC4)nn3)CC2)cc1Cl` (stereo partly drawn) [Compound 213], the inhibition at 0.01 µM was determined as 47% on AR protein [1] and 32% at AR protein [2]. The inhibition at 0.1 µM at AR protein [1] was 67%; on AR protein [2] it was 75%. For the same molecule, the values for the IC50 in the test with VCaP cells and in the test with LNCaP FGC cells were 0.019 µM and 1.32 µM, respectively.
`N#Cc1ccc(O[C@H]2CC[C@H](NC(=O)c3ccc(N4CC(CN5CCC6(CC5)COc5cc7c(cc56)C(=O)N(C5CCC(=O)NC5=O)C7=O)C4)nn3)CC2)cc1Cl` (stereo partly drawn) [Compound 55]: the inhibition at 0.01 µM was found to be 44% on AR protein [1] and 77% on AR protein [2]. Further, the inhibition at 0.1 µM is 69% at AR protein [1] and 80% at AR protein [2]. Also, the results for the IC50 in the test on VCaP cells and in the test on LNCaP FGC cells were 0.083 µM and 1 µM, respectively.
